Data: ChEMBL document CHEMBL4118125, “MK-8325: A silyl proline-containing NS5A inhibitor with pan-genotype activity for treatment of HCV” (Bioorg Med Chem Lett, 2018)
Values after ≈ are worked out from the molar mass of the structure shown.

How the values were obtained:
[1] = Solubility in pH 7.3 buffer; assay type: physicochemical
[2] = Ratio of drug level in brain to plasma of cynomolgus monkey; assay type: ADME, cell-free, Macaca fascicularis; details: read-out: BPR
[3] = Dissociation constant, pKa of the compound; assay type: physicochemical
Salmonella typhimurium = assay: Genotoxicity in Salmonella typhimurium by Ames test; assay type: toxicity, organism-based; details: salmonella enterica subsp. enterica serovar typhimurium
[4] = Ratio of drug level in liver to plasma of dog; assay type: ADME, cell-free, Canis lupus familiaris
[5] = Stability in dog liver microsomes assessed as compound metabolism; assay type: ADME, Canis lupus familiaris, microsome
[6] = target: T1, Nuclear receptor subfamily 1 group I member 2 (Homo sapiens, UniProt O75469); assay: Activation of PXR (unknown origin); assay type: ADME
T1 sequence (O75469 whole entry): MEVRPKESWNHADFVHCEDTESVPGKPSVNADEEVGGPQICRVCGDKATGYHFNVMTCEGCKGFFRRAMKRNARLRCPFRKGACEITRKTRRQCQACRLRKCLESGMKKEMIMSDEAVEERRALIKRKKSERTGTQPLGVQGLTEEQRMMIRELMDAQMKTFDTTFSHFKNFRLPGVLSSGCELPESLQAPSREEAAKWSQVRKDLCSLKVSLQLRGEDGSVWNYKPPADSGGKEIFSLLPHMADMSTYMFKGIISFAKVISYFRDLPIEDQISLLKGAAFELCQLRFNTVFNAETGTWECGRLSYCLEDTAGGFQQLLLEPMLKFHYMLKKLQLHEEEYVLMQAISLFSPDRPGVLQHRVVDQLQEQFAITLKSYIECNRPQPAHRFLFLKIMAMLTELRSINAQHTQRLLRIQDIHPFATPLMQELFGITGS

Canis familiaris [7] = assay: Toxicity in male dog up to 750 mg/kg/day, po for 7 days; assay type: organism-based, Canis lupus familiaris; details: in vivo, 168 h
[8] = target: T1, Nuclear receptor subfamily 1 group I member 2; assay: Activation of PXR in human hepatocytes assessed as induction of […] mRNA expression; assay type: ADME, cell-based
[9] = Ratio of drug level in liver to plasma of rat; assay type: ADME, cell-free
[10] = Stability in cynomolgus monkey liver microsomes assessed as compound metabolism; assay type: ADME, Macaca fascicularis, microsome
[11] = Ratio of drug level in brain to plasma of rat; assay type: ADME, cell-free; details: read-out: BPR
Rattus norvegicus [12] = assay: Toxicity in male rat assessed as increase in monocyte level at 100 mg/kg/day, po for 7 days; assay type: organism-based; details: in vivo, 168 h
Hepatocyte [13] = assay: Stability in rat hepatocytes assessed as compound metabolism; assay type: ADME, cell-based
[14] = Stability in human liver microsomes assessed as compound metabolism; assay type: ADME, microsome
Cynomolgus monkey [15] = assay: Clearance in cynomolgus monkey at 1 mg/kg, iv by LC-MS/MS method relative to liver blood flow; assay type: ADME, organism-based, Macaca fascicularis; details: in vivo
Hepatocyte [16] = assay: Stability in cynomolgus monkey hepatocytes assessed as compound metabolism; assay type: ADME, cell-based, Macaca fascicularis
Rattus norvegicus [17] = assay: Toxicity in male rat assessed as increase in monocyte level at 750 mg/kg/day, po for 7 days; assay type: organism-based; details: in vivo, 168 h
[18] = Protein binding in dog plasma; assay type: ADME, cell-free, Canis lupus familiaris; details: read-out: PPB
Canis familiaris [19] = assay: Clearance in beagle dog at 1 mg/kg, iv by LC-MS/MS method relative to liver blood flow; assay type: ADME, organism-based, Canis lupus familiaris; details: in vivo
[20] = Solubility in pH 3.1 buffer; assay type: physicochemical
[21] = Toxicity in female rat up to 30 mg/kg/day, po for 4 days; assay type: organism-based; details: in vivo
[22] = Drug excretion in rat urine assessed as unchanged compound level at 2.5 mg/kg, iv; assay type: ADME, organism-based; details: read-out: Drug excretion
[23] = Therapeutic index, ratio of CC50 for human HuH7 replicon cells to EC50 for inhibition of HCV NS5A in HCV genotype 1b assessed as reduction in viral replication by cell based replicon assay; assay type: toxicity; details: read-out: Ratio CC50/EC50
Cytochrome P450 3A4 = Cytochrome P450 3A4 (Homo sapiens, UniProt P08684); assay: Inhibition of CYP3A4 (unknown origin); assay type: ADME
Cytochrome P450 3A4, sequence (P08684 whole entry): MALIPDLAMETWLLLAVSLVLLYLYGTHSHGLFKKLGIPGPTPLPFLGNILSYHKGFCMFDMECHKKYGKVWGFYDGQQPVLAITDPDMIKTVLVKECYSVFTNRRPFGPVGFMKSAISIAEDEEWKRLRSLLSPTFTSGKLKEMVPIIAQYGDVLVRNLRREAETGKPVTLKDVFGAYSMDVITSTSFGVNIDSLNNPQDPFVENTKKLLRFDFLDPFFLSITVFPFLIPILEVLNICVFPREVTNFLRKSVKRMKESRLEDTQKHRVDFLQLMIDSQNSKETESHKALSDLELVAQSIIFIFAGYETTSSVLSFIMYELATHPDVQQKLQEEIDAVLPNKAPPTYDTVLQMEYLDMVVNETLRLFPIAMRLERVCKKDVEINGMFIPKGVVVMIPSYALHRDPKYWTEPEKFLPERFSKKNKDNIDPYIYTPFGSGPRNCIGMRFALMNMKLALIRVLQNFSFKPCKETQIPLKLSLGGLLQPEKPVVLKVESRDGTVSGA

[24] = target: T2, PXR (Nuclear receptor subfamily 1 group I member 2) (Homo sapiens, UniProt O75469); assay: Activation of PXR (unknown origin) relative to rifampicin; assay type: ADME; details: read-out: FC
T2 sequence (O75469 whole entry): T1 sequence (O75469 whole entry)

Cytochrome P450 2D6 = Cytochrome P450 2D6 (Homo sapiens, UniProt P10635); assay: Inhibition of CYP2D6 (unknown origin); assay type: ADME
Cytochrome P450 2D6, sequence (P10635 whole entry): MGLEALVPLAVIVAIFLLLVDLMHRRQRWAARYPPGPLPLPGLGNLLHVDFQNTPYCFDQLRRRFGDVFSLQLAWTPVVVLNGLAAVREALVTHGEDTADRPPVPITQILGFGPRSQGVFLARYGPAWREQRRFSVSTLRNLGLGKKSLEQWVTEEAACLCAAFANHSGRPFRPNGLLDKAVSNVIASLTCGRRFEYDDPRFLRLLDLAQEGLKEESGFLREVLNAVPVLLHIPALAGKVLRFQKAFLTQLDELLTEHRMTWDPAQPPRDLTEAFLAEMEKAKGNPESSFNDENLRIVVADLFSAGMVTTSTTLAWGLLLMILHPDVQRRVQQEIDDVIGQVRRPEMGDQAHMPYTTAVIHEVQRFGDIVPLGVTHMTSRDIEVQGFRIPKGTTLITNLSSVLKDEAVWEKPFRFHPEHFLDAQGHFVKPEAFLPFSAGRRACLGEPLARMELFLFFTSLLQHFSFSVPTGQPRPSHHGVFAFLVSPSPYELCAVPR

[25] = Ratio of drug level in brain to plasma of dog; assay type: ADME, cell-free, Canis lupus familiaris; details: read-out: BPR
Hepatocyte [26] = assay: Stability in dog hepatocytes assessed as compound metabolism; assay type: ADME, cell-based, Canis lupus familiaris
[27] = Drug excretion in rat feces assessed as unchanged compound level at 2.5 mg/kg, iv; assay type: ADME, organism-based; details: faeces, read-out: Drug excretion
[28] = target: Voltage-gated inwardly rectifying potassium channel KCNH2 (Homo sapiens, UniProt Q12809); assay: Inhibition of human ERG at 30 uM
Voltage-gated inwardly rectifying potassium channel KCNH2, sequence (Q12809 whole entry): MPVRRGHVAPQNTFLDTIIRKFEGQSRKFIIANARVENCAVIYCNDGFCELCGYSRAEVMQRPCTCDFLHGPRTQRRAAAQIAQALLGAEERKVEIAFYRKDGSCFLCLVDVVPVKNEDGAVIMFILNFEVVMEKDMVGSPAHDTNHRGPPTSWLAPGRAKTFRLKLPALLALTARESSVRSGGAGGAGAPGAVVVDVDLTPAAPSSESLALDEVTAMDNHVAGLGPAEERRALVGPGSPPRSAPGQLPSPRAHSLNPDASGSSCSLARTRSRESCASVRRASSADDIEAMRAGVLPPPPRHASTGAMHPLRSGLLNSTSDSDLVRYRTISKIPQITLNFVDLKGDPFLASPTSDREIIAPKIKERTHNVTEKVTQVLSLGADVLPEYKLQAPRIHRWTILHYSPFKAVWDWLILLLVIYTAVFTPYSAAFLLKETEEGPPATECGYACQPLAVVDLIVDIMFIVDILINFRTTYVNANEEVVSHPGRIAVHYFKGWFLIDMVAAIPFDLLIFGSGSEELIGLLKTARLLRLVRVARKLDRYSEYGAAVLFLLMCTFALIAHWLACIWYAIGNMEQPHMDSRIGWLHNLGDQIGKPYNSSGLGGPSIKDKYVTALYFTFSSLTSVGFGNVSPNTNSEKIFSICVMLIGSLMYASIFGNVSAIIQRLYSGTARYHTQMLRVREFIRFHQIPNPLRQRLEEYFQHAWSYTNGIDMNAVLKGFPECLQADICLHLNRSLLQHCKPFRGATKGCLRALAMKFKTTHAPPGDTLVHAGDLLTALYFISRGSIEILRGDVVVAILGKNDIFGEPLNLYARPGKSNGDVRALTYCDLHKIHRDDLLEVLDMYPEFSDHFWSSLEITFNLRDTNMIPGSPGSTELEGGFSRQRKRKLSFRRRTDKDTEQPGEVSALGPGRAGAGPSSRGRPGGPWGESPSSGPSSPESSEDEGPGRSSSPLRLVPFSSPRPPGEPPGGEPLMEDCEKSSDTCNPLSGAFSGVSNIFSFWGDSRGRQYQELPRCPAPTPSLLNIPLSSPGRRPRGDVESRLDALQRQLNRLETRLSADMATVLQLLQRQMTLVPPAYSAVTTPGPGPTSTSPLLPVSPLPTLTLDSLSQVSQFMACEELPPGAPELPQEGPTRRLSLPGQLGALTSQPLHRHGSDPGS

[29] = Drug excretion in dog assessed as unchanged compound level at 1 mg/kg, iv; assay type: ADME, organism-based, Canis lupus familiaris; details: in vivo
[30] = Protein binding in cynomolgus monkey plasma; assay type: ADME, cell-free, Macaca fascicularis; details: read-out: PPB
[31] = Permeability in MDCK2 cells; assay type: ADME, cell-based, Canis lupus familiaris, MDCK-II; details: dog, MDCK; read-out: permeability
[32] = Cytotoxicity in human HuH7 replicon cells by MTS assay; assay type: cell-based, Huh-7
Cytochrome P450 2C9 = Cytochrome P450 2C9 (Homo sapiens, UniProt P11712); assay: Inhibition of CYP2C9 (unknown origin); assay type: ADME
Cytochrome P450 2C9, sequence (P11712 whole entry): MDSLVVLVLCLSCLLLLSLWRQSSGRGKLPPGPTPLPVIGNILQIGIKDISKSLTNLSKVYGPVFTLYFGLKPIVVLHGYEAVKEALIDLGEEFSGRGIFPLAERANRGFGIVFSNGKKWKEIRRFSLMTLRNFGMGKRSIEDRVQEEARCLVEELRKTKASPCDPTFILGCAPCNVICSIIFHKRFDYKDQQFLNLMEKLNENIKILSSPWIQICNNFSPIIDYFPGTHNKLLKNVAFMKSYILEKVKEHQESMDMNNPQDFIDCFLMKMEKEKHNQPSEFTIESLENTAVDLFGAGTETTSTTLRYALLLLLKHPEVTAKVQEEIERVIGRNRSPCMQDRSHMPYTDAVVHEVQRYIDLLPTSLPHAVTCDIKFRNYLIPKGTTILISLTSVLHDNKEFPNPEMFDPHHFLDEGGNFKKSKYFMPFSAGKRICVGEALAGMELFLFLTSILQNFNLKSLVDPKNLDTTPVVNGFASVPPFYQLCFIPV

[33] = Drug excretion in rat bile assessed as unchanged compound level at 2.5 mg/kg, iv; assay type: ADME, organism-based; details: read-out: Drug excretion
Hepatocyte [34] = assay: Stability in human hepatocytes assessed as compound metabolism; assay type: ADME, cell-based
Rattus norvegicus [35] = assay: Toxicity in male rat assessed as induction of mortality up to 750 mg/kg/day, po for 7 days; assay type: organism-based; details: in vivo, 168 h
[36] = Stability in rat liver microsomes assessed as compound metabolism; assay type: ADME, microsome
[37] = target: T3, Solute carrier organic anion transporter family member 1B1 (Homo sapiens, UniProt Q9Y6L6); assay: Inhibition of human OATP1B1; assay type: ADME
T3 sequence (Q9Y6L6 whole entry): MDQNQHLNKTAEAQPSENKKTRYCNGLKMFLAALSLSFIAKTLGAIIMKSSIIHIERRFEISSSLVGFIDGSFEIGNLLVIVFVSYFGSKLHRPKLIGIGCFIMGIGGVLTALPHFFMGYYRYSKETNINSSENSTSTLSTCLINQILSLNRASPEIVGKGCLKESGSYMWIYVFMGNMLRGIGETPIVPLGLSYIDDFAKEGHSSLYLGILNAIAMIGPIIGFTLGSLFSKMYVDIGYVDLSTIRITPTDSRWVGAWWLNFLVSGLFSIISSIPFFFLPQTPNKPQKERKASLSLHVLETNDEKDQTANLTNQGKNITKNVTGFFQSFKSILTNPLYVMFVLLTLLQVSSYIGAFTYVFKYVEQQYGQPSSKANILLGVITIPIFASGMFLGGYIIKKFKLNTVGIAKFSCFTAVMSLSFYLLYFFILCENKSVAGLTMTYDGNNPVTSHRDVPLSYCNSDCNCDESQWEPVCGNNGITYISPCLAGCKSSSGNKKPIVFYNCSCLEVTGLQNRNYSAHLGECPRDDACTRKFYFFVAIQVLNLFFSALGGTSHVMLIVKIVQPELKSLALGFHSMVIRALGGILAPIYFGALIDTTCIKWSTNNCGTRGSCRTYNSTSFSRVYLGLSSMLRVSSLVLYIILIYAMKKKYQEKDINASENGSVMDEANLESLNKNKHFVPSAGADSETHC

[38] = target: Voltage-gated L-type calcium channel (Homo sapiens, UniProt Q13936+Q13698+Q01668+O60840); assay: Inhibition of L-type calcium channel (unknown origin) at 30 uM; assay type: protein assay
Rattus norvegicus [39] = assay: Clearance in Sprague-Dawley rat at 2.5 mg/kg, iv by LC-MS/MS method relative to liver blood flow; assay type: ADME, organism-based; details: in vivo
[40] = Protein binding in rat plasma; assay type: ADME, cell-free; details: read-out: PPB
[41] = Ratio of drug level in liver to plasma of cynomolgus monkey; assay type: ADME, cell-free, Macaca fascicularis
[42] = Effective half life in Sprague-Dawley rat at 2.5 mg/kg, iv by LC-MS/MS method; assay type: ADME, organism-based; details: in vivo, read-out: t1/2eff (converted)
[43] = Drug level in beagle dog at 2 mg/kg, po after 24 hrs by LC-MS/MS method; assay type: ADME, organism-based, Canis lupus familiaris; details: in vivo, read-out: Drug uptake
Cynomolgus monkey [44] = assay: AUC in cynomolgus monkey at 2 mg/kg, po by LC-MS/MS method; assay type: ADME, organism-based, Macaca fascicularis; details: in vivo
[45] = Effective half life in beagle dog at 1 mg/kg, iv by LC-MS/MS method; assay type: ADME, organism-based, Canis lupus familiaris; details: in vivo, read-out: t1/2eff (converted)
[46] = Drug level in cynomolgus monkey at 2 mg/kg, po after 24 hrs by LC-MS/MS method; assay type: ADME, organism-based, Macaca fascicularis; details: in vivo, read-out: Drug uptake
[47] = Clearance in cynomolgus monkey at 1 mg/kg, iv by LC-MS/MS method; assay type: ADME, organism-based, Macaca fascicularis; details: in vivo
[48] = Oral bioavailability in cynomolgus monkey at 2 mg/kg by LC-MS/MS method; assay type: ADME, organism-based, Macaca fascicularis; details: in vivo
[49] = Clearance in beagle dog at 1 mg/kg, iv by LC-MS/MS method; assay type: ADME, organism-based, Canis lupus familiaris; details: in vivo
[50] = Effective half life in cynomolgus monkey at 1 mg/kg, iv by LC-MS/MS method; assay type: ADME, organism-based, Macaca fascicularis; details: in vivo, read-out: t1/2eff (converted)
[51] = Oral bioavailability in beagle dog at 2 mg/kg by LC-MS/MS method; assay type: ADME, organism-based, Canis lupus familiaris; details: in vivo
[52] = Clearance in Sprague-Dawley rat at 2.5 mg/kg, iv by LC-MS/MS method; assay type: ADME, organism-based; details: in vivo
[53] = Oral bioavailability in Sprague-Dawley rat at 5 mg/kg by LC-MS/MS method; assay type: ADME, organism-based; details: in vivo
Canis familiaris [54] = assay: AUC in beagle dog at 2 mg/kg, po by LC-MS/MS method; assay type: ADME, organism-based, Canis lupus familiaris; details: in vivo
[55] = Drug level in Sprague-Dawley rat at 5 mg/kg, po after 24 hrs by LC-MS/MS method; assay type: ADME, organism-based; details: in vivo, read-out: Drug uptake

Structure (SMILES): COC(=O)N[C@H](C(=O)N1CC(F)(F)C[C@H]1c1ncc(-c2ccc(-c3ccc4c(ccc5nc([C@@H]6C[Si](C)(C)CN6C(=O)[C@@H](NC(=O)OC)C(C)C)[nH]c54)c3)cc2)[nH]1)C(C)C
- solubility [1]: 2.7 µg/mL (≈ 3.2 µM)
- Kp [2]: 0.04
- pKa [3]: 3.57 to 5.69
- Activity (Salmonella typhimurium): Non-Toxic
- Kp [4]: 27
- Stability [5]: Stable
- Activity [6]: > 10 µM
- Activity (Canis familiaris [7]): Non-Toxic
- Activity [8]: > 3 µM
- Kp [9]: 27
- Stability [10]: Stable
- Kp [11]: 0.04
- Activity (Rattus norvegicus [12]): Toxic
- Stability (Hepatocyte [13]): Stable
- Stability [14]: Stable
- clearance (Cynomolgus monkey [15]): 3 to 7%
- Stability (Hepatocyte [16]): Stable
- Activity (Rattus norvegicus [17]): Toxic
- fraction unbound [18]: < 0.001
- clearance (Canis familiaris [19]): 3 to 7%
- solubility [20]: 65 µg/mL (≈ 77.1 µM)
- NOAEL at 96 h [21]: > 30 mg/kg/day
- dose excreted [22]: 27%
- selectivity ratio [23]: > 8e+06
- INH (Cytochrome P450 3A4): > 20 µM
- fold induction [24]: 0.2
- INH (Cytochrome P450 2D6): > 20 µM
- Kp [25]: 0.04
- Stability (Hepatocyte [26]): Stable
- dose excreted [27]: 27%
- inhibition (INH) [28]: Not Active
- Drug excretion [29]: Active
- fraction unbound [30]: < 0.001
- Papp [31]: 0.8 ×10⁻⁶ cm/s
- CC50 [32]: > 25 µM
- INH (Cytochrome P450 2C9): > 20 µM
- dose excreted [33]: 27%
- Stability (Hepatocyte [34]): Stable
- Activity (Rattus norvegicus [35]): Non-Toxic
- Stability [36]: Stable
- inhibition (INH) [37]: Active
- inhibition (INH) [38]: Not Active
- clearance (Rattus norvegicus [39]): 3 to 7%
- fraction unbound [40]: < 0.001
- Kp [41]: 27

Structure (SMILES): COC(=O)N[C@H](C(=O)N1C[Si](C)(C)C[C@H]1c1ncc(-c2ccc(-c3ccc4c(ccc5nc([C@@H]6CC(F)(F)CN6C(=O)[C@@H](NC(=O)OC)C(C)C)[nH]c54)c3)cc2)[nH]1)C(C)C
- half-life [42]: 10 h
- concentration at 24 h [43]: 0.4 nM
- AUC (Cynomolgus monkey [44]): 26 uM.hr/ml
- Activity [8]: 0.3 µM
- half-life [45]: 30 h
- concentration at 24 h [46]: 273 nM
- clearance [47]: 0.7 mL/min/kg
- bioavailability [48]: 45%
- clearance [49]: 0.7 mL/min/kg
- INH (Cytochrome P450 3A4): > 20 µM
- half-life [50]: 15 h
- fold induction [24]: 0.31
- bioavailability [51]: 47%
- INH (Cytochrome P450 2D6): > 20 µM
- clearance [52]: 7 mL/min/kg
- bioavailability [53]: 64%
- AUC (Canis familiaris [54]): 32 uM.hr/ml
- INH (Cytochrome P450 2C9): > 20 µM
- concentration at 24 h [55]: 94 nM
